Source: US10782295B2, “Cysteine-reactive ligand discovery in proteomes” (THE SCRIPPS RESEARCH INSTITUTE, priority 2013, dated 2020)

Key:
C22A-ZAK = biological target: T1, C22A-ZAK (Homo sapiens, UniProt Q9NYL2, C22A); assay: in-gel fluorescence labeling by HNEyne probe; type: binding; details: in vitro (10 μM) and in living cells (5 μM), 1 hour
T1 construct: Full-length cDNA encoding human ZAK-13 (BC001401); expressed in transfected cells
Protocol: (§1) The gel signals for IA-labeling of WT-ZAK were blocked by pretreatment with HNE over a concentration range that closely matched the HNE-sensitivity profile observed for C22 in competitive isoTOP-ABPP experiments (FIG. 4b, compare to FIG. 3a). […] Considering further that C22 is predicted to reside adjacent to the ATP-binding loop of ZAK, we postulated that the HNE-induced loss of kinase activity might be due to blockade of ATP-binding.
(§2) 50 μL of soluble lysate (1 mg/mL in PBS) of […] cells transfected with mock ZAKWT and ZAK-C22A was labeled with 10 μM of HNEyne4 (Cayman Chemicals, 1 μL of 500 μM stock in ethanol) for 1 hour at room temperature. Cycloaddition was performed with 200 μM rhodamine-azide, 1 mM TCEP, 100 μM TBTA ligand and 1 mM CuSO4. The reaction was allowed to proceed at room temperature for 1 hour before quenching with 20 μL of 4×SDS-PAGE loading buffer (reducing). Quenched reactions were separated by SDS-PAGE (40 μL of sample/lane) and visualized in-gel using a fluorescence scanner. For the in situ HNEyne labeling, WT- and C22A-ZAK transfected cells were grown in a 6-well plate to 100% confluency and switched into 1 mL of serum-free DMEM medium. […] 50 μL of soluble lysates were subjected to the cycloaddition protocol as described above and probe labeling was monitored by in-gel fluorescence.

WT-ZAK = biological target: T2, WT-ZAK (Homo sapiens, UniProt Q9NYL2); assay: in-gel fluorescence labeling by HNEyne probe; type: binding; details: in vitro (10 μM) and in living cells (5 μM), 1 hour
T2 construct: Full-length cDNA encoding human ZAK-13 (BC001401); expressed in transfected cells
T2 sequence (Q9NYL2 1-455 isoform Q9NYL2-2): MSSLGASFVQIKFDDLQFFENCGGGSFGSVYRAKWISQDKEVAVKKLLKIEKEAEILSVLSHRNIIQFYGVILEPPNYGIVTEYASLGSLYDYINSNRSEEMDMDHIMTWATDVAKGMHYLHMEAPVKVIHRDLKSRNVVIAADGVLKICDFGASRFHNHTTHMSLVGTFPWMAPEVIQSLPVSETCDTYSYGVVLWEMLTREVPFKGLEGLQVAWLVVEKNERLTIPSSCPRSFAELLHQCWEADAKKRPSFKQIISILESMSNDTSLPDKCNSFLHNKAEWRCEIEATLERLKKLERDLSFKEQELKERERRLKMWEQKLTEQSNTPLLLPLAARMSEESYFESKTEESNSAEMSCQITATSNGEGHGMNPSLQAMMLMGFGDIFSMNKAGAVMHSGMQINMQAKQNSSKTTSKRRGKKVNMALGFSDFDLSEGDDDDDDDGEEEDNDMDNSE
Protocol: as §1, §2

T1 sequence (Q9NYL2 1-455 isoform Q9NYL2-2 C22A): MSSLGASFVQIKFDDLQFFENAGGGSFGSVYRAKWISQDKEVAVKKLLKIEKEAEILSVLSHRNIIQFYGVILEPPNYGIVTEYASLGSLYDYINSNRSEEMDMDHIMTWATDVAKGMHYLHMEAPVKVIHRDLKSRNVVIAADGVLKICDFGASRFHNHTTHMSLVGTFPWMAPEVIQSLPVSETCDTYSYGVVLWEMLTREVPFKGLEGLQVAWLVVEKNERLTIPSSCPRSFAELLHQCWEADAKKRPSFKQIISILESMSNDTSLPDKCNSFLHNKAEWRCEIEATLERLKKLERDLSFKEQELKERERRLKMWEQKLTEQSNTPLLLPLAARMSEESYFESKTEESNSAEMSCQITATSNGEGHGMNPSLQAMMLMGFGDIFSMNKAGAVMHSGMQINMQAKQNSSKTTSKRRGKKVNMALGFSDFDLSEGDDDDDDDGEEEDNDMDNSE

probe labeling of C22A-ZAK mutant (C22A-ZAK): but not the C22A-ZAK mutant
probe labeling of WT-ZAK (WT-ZAK): direct labeling
SMILES: C#CCCCC(O)C=CC=O (centres unmarked) [HNEyne]
